Results: US9346815B2, “5-chloro-2-difluoromethoxyphenyl pyrazolopyrimidine compounds, compositions and methods of use thereof” (Genentech, Inc., priority 2014, dated 2016)
Where a name gives a salt, the structure may show the parent alone.

Assays:
[1] = molecular target: isolated recombinant JAK1 kinase domain (Homo sapiens (Human), UniProt P23458); experiment: JAK1 enzyme assay (Caliper LabChip, peptide phosphorylation); format: biochemical; settings: isolated recombinant JAK1 kinase domain, 25 μM ATP
isolated recombinant JAK1 kinase domain, sequence (P23458 875-1153): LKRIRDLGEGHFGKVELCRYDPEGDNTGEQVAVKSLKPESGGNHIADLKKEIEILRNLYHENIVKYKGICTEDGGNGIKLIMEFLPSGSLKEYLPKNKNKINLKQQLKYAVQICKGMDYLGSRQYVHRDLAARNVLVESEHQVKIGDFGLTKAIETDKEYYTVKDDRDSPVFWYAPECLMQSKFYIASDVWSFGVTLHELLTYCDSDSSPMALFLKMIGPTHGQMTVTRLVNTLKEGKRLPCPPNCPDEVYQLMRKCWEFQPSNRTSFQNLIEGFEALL

[2] = molecular target: isolated recombinant JAK2 kinase domain (Homo sapiens (Human), UniProt O60674); experiment: JAK2 enzyme assay (Caliper LabChip, peptide phosphorylation); format: biochemical; settings: 25 μM ATP
isolated recombinant JAK2 kinase domain, sequence (O60674 849-1124): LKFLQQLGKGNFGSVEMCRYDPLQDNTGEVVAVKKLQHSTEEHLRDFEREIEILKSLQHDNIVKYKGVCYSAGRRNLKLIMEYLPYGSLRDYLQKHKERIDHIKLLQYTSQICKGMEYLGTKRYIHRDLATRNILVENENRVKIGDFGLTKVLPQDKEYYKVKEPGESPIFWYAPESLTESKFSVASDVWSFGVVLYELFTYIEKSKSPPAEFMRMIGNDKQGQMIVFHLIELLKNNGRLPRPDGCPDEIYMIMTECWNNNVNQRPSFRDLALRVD

[3] = tested on: JAK1-dependent STAT6 phosphorylation downstream of IL-13 stimulation in TF-1 human erythroleukemia cells; experiment: JAK1 pathway assay in TF-1 cells (IL-13-pSTAT6, MSD); format: cell-based; settings: Homo sapiens, TF-1, TF-1 cells, read-out: IL13-pSTAT6 EC50_TF-1
Method in brief: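 TF-1 cells are starved of GM-CSF overnight and run in serum-free medium, while BEAS-2B cells stay in complete growth medium. Inhibition of STAT6 phosphorylation is measured by MSD.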

| Ki [1] [nM] | Ki [2] [nM] | EC50 [3] [nM] | Compound |
| --- | --- | --- | --- |
| 1.17 | 0.53 | 8.7 | CN(C)C[C@@H]1CCCN(C(=O)Cn2cc(NC(=O)c3c(N)nn4cccnc34)c(-c3cc(Cl)ccc3OC(F)F)n2)C1 [Example 82, 2-amino-N-[3-[5-chloro-2-(difluoromethoxy)phenyl]-1-[2-[(3S)-3-[(dimethylamino)methyl]-1-piperidyl]-2-oxo-ethyl]pyrazol-4-yl]pyrazolo[1,5-a]pyrimidine-3-carboxamide] |
| 3.1 | 10.6 | 203 | O=C(Nc1cn(CC(=O)N2CCC(CN3CCC(F)(F)CC3)(c3ccccc3)CC2)nc1-c1cc(Cl)ccc1OC(F)F)c1cnn2cccnc12 [Example 111, N-[3-[5-chloro-2-(difluoromethoxy)phenyl]-1-[2-[4-[(4,4-difluoro-1-piperidyl)methyl]-4-phenyl-1-piperidyl]-2-oxo-ethyl]pyrazol-4-yl]pyrazolo[1,5-a]pyrimidine-3-carboxamide] |
| 0.64 | 0.25 | 36.7 | CN(C)C1CCN(C(=O)Cn2cc(NC(=O)c3c(N)nn4cccnc34)c(-c3cc(Cl)ccc3OC(F)F)n2)C1 (stereo not drawn) [Example 136, 2-amino-N-[3-[5-chloro-2-(difluoromethoxy)phenyl]-1-[2-[3-(dimethylamino)pyrrolidin-1-yl]-2-oxo-ethyl]pyrazol-4-yl]pyrazolo[1,5-a]pyrimidine-3-carboxamide] |
| 0.84 | 0.78 | 11.1 | CCN1C[C@@H]2CN(C(=O)Cn3cc(NC(=O)c4cnn5cccnc45)c(-c4cc(Cl)ccc4OC(F)F)n3)C[C@@H]2C1 [Example 5, Cis pyrazolo[1,5-a]pyrimidine-3-carboxylic acid {3-(5-chloro-2-difluoromethoxyphenyl)-1-[2-(5ethyl-hexahydro-pyrrolo[3,4-c]pyrrol-2-yl)-2-oxoethyl]-1H-pyrazol-4-yl}amide hydrochloride] |
| 0.45 | 0.09 | 15 | CS(=O)(=O)CCCN1CCC(n2cc(NC(=O)c3c(N)nn4cccnc34)c(-c3cc(Cl)ccc3OC(F)F)n2)CC1 [Example 177, 2-amino-N-[3-[5-chloro-2-(difluoromethoxy)phenyl]-1-[1-(3-methylsulfonylpropyl)-4-piperidyl]pyrazol-4-yl]pyrazolo[1,5-a]pyrimidine-3-carboxamide] |
| 0.66 | 0.36 | 15 | CN1C[C@H]2CN(C(=O)Cn3cc(NC(=O)c4cnn5cccnc45)c(-c4cc(Cl)ccc4OC(F)F)n3)C[C@@]2(c2ccccc2)C1 [Example 43, N-[1-[2-[(3aS,6aS)-2-methyl-3a-phenyl-3,4,6,6a-tetrahydro-1H-pyrrolo[3,4-c]pyrrol-5-yl]-2-oxo-ethyl]-3-[5-chloro-2-(difluoromethoxy)phenyl]pyrazol-4-yl]pyrazolo[1,5-a]pyrimidine-3-carboxamide] |
| 0.67 | 1.77 | 16.5 | CN(CCC1CCCCC1)C1CCN(C(=O)Cn2cc(NC(=O)c3cnn4cccnc34)c(-c3cc(Cl)ccc3OC(F)F)n2)CC1 [Example 101, N-[3-[5-chloro-2-(difluoromethoxy)phenyl]-1-[2-[4-[2-cyclohexyl-ethyl(methyl)amino]-1-piperidyl]-2-oxo-ethyl]pyrazol-4-yl]pyrazolo[1,5-a]pyrimidine-3-carboxamide] |
| 0.45 | 0.13 | 3.9 | Nc1nn2cccnc2c1C(=O)Nc1cn(C2CCN(CCCN3CCCC3=O)CC2)nc1-c1cc(Cl)ccc1OC(F)F [Example 146, 2-amino-N-[3-[5-chloro-2-(difluoromethoxy)phenyl]-1-[1-[3-(2-oxopyrrolidin-1-yl)propyl]-4-piperidyl]pyrazol-4-yl]pyrazolo[1,5-a]pyrimidine-3-carboxamide] |
| 0.73 | 0.44 | 32.3 | Nc1nn2cccnc2c1C(=O)Nc1cn(CC(=O)N2CCNCC2)nc1-c1cc(Cl)ccc1OC(F)F [Example 249, 2-amino-N-[3-[5-chloro-2-(difluoromethoxy)phenyl]-1-(2-oxo-2-piperazin-1-yl-ethyl)pyrazol-4-yl]pyrazolo[1,5-a]pyrimidine-3-carboxamide] |
| 0.41 | 1.11 | 41.5 | O=C(Nc1cn(CC(=O)N2CCC3(CCN(CC4CCN(C(=O)OCc5ccccc5)CC4)C3)CC2)nc1-c1cc(Cl)ccc1OC(F)F)c1cnn2cccnc12 [Example 226, benzyl 4-[[8-[2-[3-[5-chloro-2-(difluoromethoxy)phenyl]-4-(pyrazolo[1,5-a]pyrimidine-3-carbonylamino)pyrazol-1-yl]acetyl]-2,8-diazaspiro[4.5]decan-2-yl]methyl]piperidine-1-carboxylate] |
| 0.78 | 2.02 | 4.9 | CN1CC[C@@H]2[C@@H](CCN2C(=O)Cn2cc(NC(=O)c3cnn4cccnc34)c(-c3cc(Cl)ccc3OC(F)F)n2)C1 [Example 24, N-[1-[2-[(3aS,7aR)-5-methyl-3,3a,4,6,7,7a-hexahydro-2H-pyrrolo[3,2-c]pyridin-1-yl]-2-oxo-ethyl]-3-[5-chloro-2-(difluoromethoxy)phenyl]pyrazol-4-yl]pyrazolo[1,5-a]pyrimidine-3-carboxamide] |
| 0.8 | 2.6 | 17.3 | COc1ccc(CCN(C)C2CCN(C(=O)Cn3cc(NC(=O)c4cnn5cccnc45)c(-c4cc(Cl)ccc4OC(F)F)n3)CC2)cc1 [Example 95, N-[3-[5-chloro-2-(difluoromethoxy)phenyl]-1-[2-[4-[2-(4-methoxyphenyl)ethyl-methyl-amino]-1-piperidyl]-2-oxo-ethyl]pyrazol-4-yl]pyrazolo[1,5-a]pyrimidine-3-carboxamide] |
| 1.07 | 2.68 | 23.7 | CN(Cc1ccc(F)c(Br)c1)C1CCN(C(=O)Cn2cc(NC(=O)c3cnn4cccnc34)c(-c3cc(Cl)ccc3OC(F)F)n2)CC1 [Example 131, N-[1-[2-[4-[(3-bromo-4-fluoro-phenyl)methyl-methyl-amino]-1-piperidyl]-2-oxo-ethyl]-3-[5-chloro-2-(difluoromethoxy)phenyl]pyrazol-4-yl]pyrazolo[1,5-a]pyrimidine-3-carboxamide] |
| 3.22 | 7.3 | 42.9 | C=CCN(CCOc1ccc(C)cc1)C1CCN(C(=O)Cn2cc(NC(=O)c3cnn4cccnc34)c(-c3cc(Cl)ccc3OC(F)F)n2)CC1 [Example 109, N-[1-[2-[4-[allyl-[2-(4-methylphenoxy)ethyl]amino]-1-piperidyl]-2-oxo-ethyl]-3-[5-chloro-2-(difluoromethoxy)phenyl]pyrazol-4-yl]pyrazolo[1,5-a]pyrimidine-3-carboxamide] |
| 0.72 | 1.6 | 25.2 | CN(CCc1ccccn1)C1CCN(C(=O)Cn2cc(NC(=O)c3cnn4cccnc34)c(-c3cc(Cl)ccc3OC(F)F)n2)CC1 [Example 86, N-[3-[5-chloro-2-(difluoromethoxy)phenyl]-1-[2-[4-[methyl-[2-(2-pyridyl)ethyl]amino]-1-piperidyl]-2-oxo-ethyl]pyrazol-4-yl]pyrazolo[1,5-a]pyrimidine-3-carboxamide] |
| 0.63 | 1.8 | 14.9 | CN(Cc1ccc(Cl)cc1)C1CCN(C(=O)Cn2cc(NC(=O)c3cnn4cccnc34)c(-c3cc(Cl)ccc3OC(F)F)n2)CC1 [Example 126, N-[3-[5-chloro-2-(difluoromethoxy)phenyl]-1-[2-[4-[(4-chlorophenyl)methyl-methyl-amino]-1-piperidyl]-2-oxo-ethyl]pyrazol-4-yl]pyrazolo[1,5-a]pyrimidine-3-carboxamide] |
| 2.12 | 0.26 | 38.8 | O=C(Nc1cn(C2CCN(CCCN3CCOCC3)CC2)nc1-c1cc(Cl)ccc1OC(F)F)c1cnn2cccnc12 [Example 158, N-[3-[5-chloro-2-(difluoromethoxy)phenyl]-1-[1-(3-morpholinopropyl)-4-piperidyl]pyrazol-4-yl]pyrazolo[1,5-a]pyrimidine-3-carboxamide] |
| 0.52 | 1.34 | 15.3 | CN(CC1(C#N)CCCCC1)C1CCN(C(=O)Cn2cc(NC(=O)c3cnn4cccnc34)c(-c3cc(Cl)ccc3OC(F)F)n2)CC1 [Example 114, N-[3-[5-chloro-2-(difluoromethoxy)phenyl]-1-[2-[4-[(1-cyanocyclohexyl)methyl-methyl-amino]-1-piperidyl]-2-oxo-ethyl]pyrazol-4-yl]pyrazolo[1,5-a]pyrimidine-3-carboxamide] |
| 1.36 | 0.86 | 16.5 | O=C(Nc1sc(N2CC(N3CCCCC3)C2)nc1-c1cc(Cl)ccc1OC(F)F)c1cnn2cccnc12 [Example 195, N-[4-[5-chloro-2-(difluoromethoxy)phenyl]-2-[3-(1-piperidyl)azetidin-1-yl]thiazol-5-yl]pyrazolo[1,5-a]pyrimidine-3-carboxamide] |
| 1.09 | 2.29 | 15.5 | CN(CCOc1ccccc1Cl)C1CCN(C(=O)Cn2cc(NC(=O)c3cnn4cccnc34)c(-c3cc(Cl)ccc3OC(F)F)n2)CC1 [Example 106, N-[3-[5-chloro-2-(difluoromethoxy)phenyl]-1-[2-[4-[2-(2-chlorophenoxy)ethyl-methyl-amino]-1-piperidyl]-2-oxo-ethyl]pyrazol-4-yl]pyrazolo[1,5-a]pyrimidine-3-carboxamide] |
| 0.45 | 1.01 | 96.3 | CN(CC1Oc2ccccc2O1)C1CCN(C(=O)Cn2cc(NC(=O)c3cnn4cccnc34)c(-c3cc(Cl)ccc3OC(F)F)n2)CC1 [Example 112, N-[1-[2-[4-[1,3-benzodioxol-2-ylmethyl(methyl)amino]-1-piperidyl]-2-oxo-ethyl]-3-[5-chloro-2-(difluoromethoxy)phenyl]pyrazol-4-yl]pyrazolo[1,5-a]pyrimidine-3-carboxamide] |
